Experimental data taken from patent publication EP4056546A1, “ALIPHATIC 18F-RADIOLABELING OF A TETRAZINE PRECURSOR” (University of Copenhagen, priority 2021, dated 2022).
Each block holds one compound with its values, some of them ahead of it.

What was measured:
[1] = Bench stability by analytical HPLC; assay type: physicochemical
Description: The stability of [^18F]13 and it precursor (28) was investigated by analytical HPLC.

[2] = Reaction kinetics measurement: second-order rate constants of tetrazines with TCO (stopped-flow photometer, pseudo-first-order); assay type: physicochemical; conditions: Second order rate constants with TCO at 37 °C in PBS
Method: Reaction kinetics of tetrazines with standard TCO were determined using pseudo-first-order measurements with an excess of the TCO compound in PBS (pH = 7.4) at 37.0 ± 0.1 °C following the decrease of tetrazine absorbance at 535 nm. Measurements were performed in triplicates using an SX20 stopped-flow photometer (Applied Photophysics, UK) equipped with a 535 nm LED light source. Data analysis was performed using Prism 6 (Graphpad) to determine the observed rate constants which were converted into secondorder rate constants through dividing by the TCO concentration.
Second-order rate constants for the reaction with TCO in PBS at 37 °C were determined by pseudo-first order measurements in a SX20 stopped flow photometer (Applied Photophysics).

CC49-TCO = assay: Pretargeted PET/CT imaging in LS174T tumor xenograft bearing mice; assay type: in vivo, Balb/c nude mice
Method: The ability of [^18F]13 to be used as a pretargeting imaging agent was evaluated using a similar pretargeted setup that was used for the ex vivo blocking study in example 7. Mice were administered with CC49-TCO 72 h prior to administration of [^18F]13 where after PET/CT scanning was performed 1 h later. Control animals were injected with unconjugated mAb CC49 instead of CC49-TCO, but were otherwise treated exactly the same. After PET/CT scanning, animals were euthanized and an ex vivo biodistribution performed. […] The tumor uptake was clearly visible. A tumor-to-muscle (T/M) ratio of 20.1 and a tumor-to-blood (T/B) ratio of 1.2 from the image derived data (heart uptake used as surrogate for blood uptake) was determined. The relatively low T/B ratio is likely due to ligation of [^18F]13 with remnant CC49-TCO still circulating in the blood. Clearance of CC49-TCO from blood will most likely increase the ratio drastically. Uptake in tissues beside tumor and blood was low. […]
Pretargeted imaging of [^18F]13 as tested in vivo using the TAG-72 targeting antibody CC49 in human colorectal cancer xenograft tumors LS174T. […] The radioactivity in the tissues were determined using a gamma counter (Wizard^2, Perkin Elmer). Data was corrected for decay, tissue weight and the injected dose of radioactivity. […] Statistical difference between mean %ID/g values were analyzed using Welch's T-test. […]

[3] = Tetrazine core reactivity test with TCO-PNP (analytical HPLC); assay type: physicochemical; conditions: after 4 hours at r.t.
Method: The reaction between [^18F]13 TCO-PNP was performed by mixing the formulated [^18F]13 (200 µL) with 5 µL of the commercially available TCO-PNP ester dissolved in DMF (5 mg/mL) in an analytical HPLC vial. […]

stability of the precursor ([1]; bench stability, analytical HPLC): decomposed over time | stability of the precursor (time stable) ([1]; dissolved (25 mg/mL) in DMSO and frozen at -20 °C): at least 3 months | stability of the precursor (time stable) ([1]; stored at -20 °C as a solid): ≥ 3 months
Structure (SMILES): CC(C)(C)OC(=O)CN(CC(=O)OC(C)(C)C)Cc1ccc(-c2nncnn2)cc1OCCOS(=O)(=O)c1ccc([N+](=O)[O-])cc1 [Compound 28, Di-tert-butyl 2,2'-((2-(2-(((4-nitrophenyl)sulfonyl)oxy)ethoxy)-4-(1,2,4,5-tetrazin-3-yl)benzyl)azanediyl)diacetate]

Structure (SMILES): O=C(O)C(F)(F)F.O=C(O)CN(CCF)Cc1cc(F)cc(-c2nncnn2)c1 [Compound 9, N-(carboxymethyl)-2-fluoro-N-(3-fluoro-5-(1,2,4,5-tetrazin-3-yl)benzyl)ethanaminium 2,2,2-trifluoroacetate]
Rate constant [2]: 87722 M⁻¹ s⁻¹

Structure (SMILES): O=C(O)C(F)(F)F.O=C(O)CN(CCF)Cc1ccc(-c2nncnn2)cc1F [Compound 11, N-(carboxymethyl)-2-fluoro-N-(2-fluoro-4-(1,2,4,5-tetrazin-3-yl)benzyl)ethanaminium 2,2,2-trifluoroacetate]
Rate constant [2]: 74592 M⁻¹ s⁻¹

Structure (SMILES): O=C(O)C(F)(F)F.O=C(O)CN(CCF)Cc1ccc(-c2nncnn2)cc1 [Compound 12, N-(4-(1,2,4,5-tetrazin-3-yl)benzyl)-N-(carboxymethyl)-2-fluoroethanaminium 2,2,2-trifluoroacetate]
Rate constant [2]: 54999 M⁻¹ s⁻¹

Structure (SMILES): O=C(O)CN(CC(=O)O)Cc1ccc(-c2nncnn2)cc1OCC[18F] [[^18F]13]
tumor-to-muscle ratio in comparison with [64Cu]Cu-NOTa-PEG7-H-Tz, [111In]Tz-Tg and ZZ (CC49-TCO; PET imaging, Figure 6): highest tumor-to-musle ratio | Uptake in tissues beside tumor and blood (CC49-TCO; PET/CT 1 h p.i., CC49-TCO pretargeted): low | ability to react with TCO-PNP [3]: still able to react quantitatively with TCO-PNP | Stability at r.t. over 4 hours ([1]; after 4 hours, Figure 5A): no signs of decomposition | stability (time stable) ([1]; analytical HPLC, r.t.): at least 4 hours

Structure (SMILES): O=C(O)C(F)(F)F.O=C(O)CN(CC(=O)O)Cc1ccc(-c2nncnn2)cc1OCCF [Compound 13, 1-Carboxy-N-(carboxymethyl)-N-(2-(2-fluoroethoxy)-4-(1,2,4,5-tetrazin-3-yl)benzyl) methanaminium 2,2,2-trifluoroacetate]
Rate constant [2]: 68478 M⁻¹ s⁻¹

Structure (SMILES): O=C(O)C(F)(F)F.O=C(O)CN(CCF)Cc1cccc(-c2nncnn2)c1 [Compound 10, N-(3-(1,2,4,5-tetrazin-3-yl)benzyl)-N-(carboxymethyl)-2-fluoroethanaminium 2,2,2-trifluoroacetate]
Rate constant [2]: 62464 M⁻¹ s⁻¹
